Laboratory results reported in patent US20030004175A1, “1,3-oxathiolane nucleoside analogues” (BioChem Pharma Inc., priority 1990, published 2003).
Values after ≈ are worked out from the molar mass of the structure shown.

Assays:
CEM cells = experiment: Cytotoxicity, viable cell count by trypan blue exclusion, CEM cells; assay type: cell-based, human; conditions: 5 days at 37° C.
Procedure: (§1) The cytotoxicites of the compounds of Example 2, the racemic compound (BCH-189; […] H9, JM, CEM, C8166 and U937. […] After incubation at 37° C. for 5 days, the viable cell count was determined by removing a sample of cell suspension and counting trypan blue excluding cells in a haemocytometer.

JM cells = experiment: Cytotoxicity, viable cell count by trypan blue exclusion, JM cells; assay type: cell-based; conditions: 5 days at 37° C.
Procedure: as §1

H9 cells = experiment: Cytotoxicity, viable cell count by trypan blue exclusion, H9 cells; assay type: cell-based; conditions: 5 days at 37° C.
Procedure: as §1

U937 cells = experiment: Cytotoxicity, viable cell count by trypan blue exclusion, U937 cells; assay type: cell-based; conditions: 5 days at 37° C.
Procedure: as §1

C8166 cells = experiment: Cytotoxicity, viable cell count by trypan blue exclusion, C8166 cells; assay type: cell-based, human; conditions: 5 days at 37° C.
Procedure: as §1

HIV-1 strain RF [1] = experiment: Antiviral activity by inhibition of formazan conversion, MT-4 cells infected with HIV-1 RF; assay type: cell-based; conditions: Human immunodeficiency virus 1, MT4, Formazan assay, read-out: 50% Antiviral Activity
Procedure: (§2) Antiviral activity of the compounds of Example 2 were determined against three strains of HIV-1 and one strain of HIV-2 in the following cell lines.
(§3) MT-4 cells, a human T-cell leukaemia cell line, infected with HIV-1 strain RF.
(§4) Antiviral activities in C8166, JM, and CEM cells were determined by inhibition of syncytium formation (Tochikura et al Virology, 164, 542-546) and in MT-4 cells by inhibition of formazan conversion (Baba et al; (1987) Biochem Biophys Res Commun., 142, 128-134; Mossman (1983) J. Immun Meth; 65, 55-57). Antiviral activities were also determined by analysing the amount of HIV p24 antigen synthesised in the presence and absence of enantiomers.

HIV-2 strain ROD = experiment: Antiviral activity by inhibition of syncytium formation, CEM cells infected with HIV-2 ROD; assay type: cell-based; conditions: Human immunodeficiency virus 2, CCRF-CEM, read-out: 50% Antiviral Activity
Procedure: as §2
(§5) CEM cells, a human T-lymphoblastoid cell line, infected with HIV-1 strains RF and U455, or HIV-2 strain ROD.
as §4

HIV-1 strain RF [2] = experiment: Antiviral activity by inhibition of syncytium formation, CEM cells infected with HIV-1 RF; assay type: cell-based; conditions: Human immunodeficiency virus 1, CCRF-CEM, read-out: 50% Antiviral Activity
Procedure: as §2, §5, §4

HIV-1 strain U455 = experiment: Antiviral activity by inhibition of syncytium formation, CEM cells infected with HIV-1 U455; assay type: cell-based; conditions: Human immunodeficiency virus 1, CCRF-CEM, read-out: 50% Antiviral Activity
Procedure: as §2, §5, §4

HIV-1 strain GB8 [3] = experiment: Antiviral activity by inhibition of syncytium formation, JM cells infected with HIV-1 GB8; assay type: cell-based; conditions: Human immunodeficiency virus 1, read-out: 50% Antiviral Activity
Procedure: as §2
(§6) JM cells, a semi-mature T-cell line derived from a patient with lymphoblastic leukaemia, infected with HIV-1 strain GB8.
as §4

HIV-1 strain RF [4] = experiment: Antiviral activity by inhibition of syncytium formation, C8166 cells infected with HIV-1 RF; assay type: cell-based; conditions: Human immunodeficiency virus 1, read-out: 50% Antiviral Activity
Procedure: as §2
(§7) C8166 cells, a human T-lymphoblastoid cell line, infected with HIV-1 strain RF.
as §4

HIV-1 strain RF [5] = experiment: Inhibition of HIV p24 antigen synthesis, C8166 cells, strain RF; assay type: cell-based; conditions: Human immunodeficiency virus 1, read-out: 50% Inhibition HIV p24 Synthesis
Procedure: as §2, §7, §4

HIV-1 strain GB8 [6] = experiment: Inhibition of HIV p24 antigen synthesis, JM cells, strain GB8; assay type: cell-based; conditions: Human immunodeficiency virus 1, read-out: 50% Inhibition HIV p24 Synthesis
Procedure: as §2, §6, §4

HIV-1 strain RF [7] = experiment: Inhibition of HIV p24 antigen synthesis, MT-4 cells, strain RF; assay type: cell-based; conditions: Human immunodeficiency virus 1, MT4, read-out: 50% Inhibition HIV p24 Synthesis
Procedure: as §2, §3, §4

CD4 cell lines = experiment: Cytotoxicity (summary statement); assay type: cell-based
Procedure: Compounds for test were serially diluted from 100 μg/ml to 0.3 μg/ml (final concentrations) in 96 well microtitre plates. 3.6×10^4 cells were inoculated into each well of the plates including drug-free controls. After incubation at 37° C. for 5 days, the viable cell count was determined by removing a sample of cell suspension and counting trypan blue excluding cells in a haemocytometer.

| Compound | 50% Cytoxicity (CEM cells) [µg/mL] | 50% Cytoxicity (JM cells) [µg/mL] | 50% Cytoxicity (H9 cells) [µg/mL] | 50% Cytoxicity (U937 cells) [µg/mL] | 50% Cytoxicity (C8166 cells) [µg/mL] | IC50 (HIV-1 strain RF [1]) [µg/mL] | IC50 (HIV-2 strain ROD) [µg/mL] | IC50 (HIV-1 strain RF [2]) [µg/mL] | IC50 (HIV-1 strain U455) [µg/mL] | IC50 (HIV-1 strain GB8 [3]) [µg/mL] | IC50 (HIV-1 strain RF [4]) [µg/mL] | IC50 (HIV-1 strain RF [5]) [µg/mL] | IC50 (HIV-1 strain GB8 [6]) [µg/mL] | IC50 (HIV-1 strain RF [7]) [µg/mL] | cytotoxicity compared with the other enantiomer (CD4 cell lines) |
| --- | --- | --- | --- | --- | --- | --- | --- | --- | --- | --- | --- | --- | --- | --- | --- |
| Nc1ccn([C@@H]2CS[C@H](CO)O2)c(=O)n1 (racemic) [BCH-189, (±)-(cis)-4-Amino-1-(2-hydroxymethyl-1,3-oxathiolan-5-yl)-(1H)-pyrimidin-2-one] | 3 | 3.5 | 8 | 15 | 90 |  |  |  |  |  |  |  |  |  |  |
| Nc1ccn([C@H]2CS[C@@H](CO)O2)c(=O)n1 [(+)-enantiomer, (2S,cis)-4-amino-1-(2-hydroxymethyl-1,3-oxathiolan-5-yl)-(1H)-pyrimidin-2-one] | 1 | 1.5 | 2 | 4 | 35 | 0.28 (≈ 1.22 µM) | 0.045 (≈ 0.196 µM) | 0.07 (≈ 0.305 µM) | 0.006 (≈ 0.0262 µM) | 0.03 (≈ 0.131 µM) | 0.05 (≈ 0.218 µM) | 0.021 (≈ 0.0916 µM) | 0.033 (≈ 0.144 µM) | 0.0008 (≈ 0.00349 µM) |  |
| Nc1ccn([C@@H]2CS[C@H](CO)O2)c(=O)n1 [(−)-enantiomer, (−)-cis-4-Amino-1-(2-hydroxymethyl-1,3-oxathiolan-5-yl)-(1H)-pyrimidin-2-one] | >100 | 30 | >100 | >100 | >100 | 0.2 (≈ 0.872 µM) | 0.055 (≈ 0.24 µM) | 0.04 (≈ 0.174 µM) | 0.008 (≈ 0.0349 µM) | 0.05 (≈ 0.218 µM) | 0.01 (≈ 0.0436 µM) | 0.016 (≈ 0.0698 µM) | 0.016 (≈ 0.0698 µM) | 0.0004 (≈ 0.00174 µM) | considerably lower cytotoxicity |
